Laboratory results from patent US10632135B2, “Orally available compounds, a process for preparing the same and their uses as anti-adhesive drugs for treating E. coli induced inflammatory bowel diseases such as crohn's disease” (CENTRE NATIONAL DE LA RECHERCHE SCIENTIFIQUE, priority 2014, dated 2020).

Experiments:
[1] = test system: Adherent-Invasive E. coli strain LF82 adhesion to intestinal epithelial cells T84; test: Adhesion of Adherent-Invasive E. coli LF82 to intestinal epithelial cells T84 in presence of monovalent compounds (pre-, co- and post-incubation); format: cell-based
Experimental: E. coli strain LF82 was isolated from a chronic ileal lesion of a patient with Crohn's disease (CD). Bacteria were grown routinely in Luria-Bertani (LB) broth overnight at 37° C. Intestinal epithelial cells T84 derived from colonic adenocarcinoma were maintained in an atmosphere containing 5% CO2 at 37° C. in DMEM/F12 (50/50) medium supplemented with 10% (v/v) heat-inactivated fetal calf serum (FCS), 1% L-glutamine, 100 000 U·l^−1 penicillin, 100 mg·l^−1 streptomycin, 25 μg·l^−1 amphotericin B.
T84 were seeded in 48-well plates at a concentration of 1.5×10^5 cells per well and grown for 48 h. AIEC LF82 bacteria were incubated 1 h with monovalent compounds prior the cell infection (pre-incubation protocol) or they were added simultaneously onto the cells (co-incubation protocol) in complete medium without antibiotics, containing heat inactivated fetal calf serum (FCS). Monovalent compound 10 was tested at a dose of 100; 10; 1 (and 0.1) μM, compound 5 was tested at a dose of 500; 100; 10 and 1 μM and D-mannose was tested at a dose of 10 000; 1 000; 100 or 10 μM. Cells were infected with AIEC LF82 bacteria at a multiplicity of infection (MOI) of 10 bacteria per cell for 3 h at 37° C.
For the post-incubation protocol, monovalent compounds (same doses than in the pre- and co-incubation assays) were incubated with cells for 3 h after bacterial infection. A washing step was realized before this post-incubation to eliminate non-adherent bacteria.
Monolayers were washed in phosphate-buffered saline (PBS; pH 7.2) and cells were then lysed with 1% Triton X-100 in deionized water. […] Results were expressed as percentages of residual adhesion, considering adhesion level of AIEC LF82 without mannosides treatment as 100%.
D-mannose, compounds 5 and 10 were assessed as putative inhibitors to compete the interaction of CEACAM6 expressed by T84 intestinal epithelial cells with the adhesin FimH of AIEC bacteria following three different protocols: pre-, co- and post-incubation experiments (FIG. 1).

[2] = test system: HUV-EC-C, CCD-18Co, MRC-5 and PWR-1E normal cell lines; format: cell-based, Human
Experimental: Compounds 10 and 22′ were extemporaneously dissolved at 100 mM in water to obtain a stock solution.
The final concentrations of compounds 10 and 22′ were 100 nM, 1 μM, 10 μM, 100 μM and 1 mM within wells.
The 4 cell lines were plated at optimal density per well in 96-well plates. Plates were incubated at 37° C. for 24 hours before treatment, in drug-free culture medium.
Cell lines were then incubated for 96 hours at 37° C. under 5% CO2 with the 5 concentrations of compounds 10 or 22′ in 1:10 dilution steps. Each concentration was done in triplicate. Control cells were treated with vehicle alone (water).
The dose response for index of cytotoxicity (IC) is expressed as following: […]
IC50 represents the drug concentration required to obtain 50% of cellular cytotoxicity. The
IC50 determination values were calculated from semi-log curves.

Row | SMILES | concentration at which a significant decrease in the bacterial adhesion level was obtained ([1]; co-incubation protocol, LF82 MOI 10, 3 h, T84 cells) | dose at which adhesion was decreased ([1]; post-incubation protocol) | concentration showing a significant inhibitory effect on the bacterial adhesion ([1]; pre-incubation protocol (bacteria incubated 1 h with compound before infection)) | cytotoxicity values of the control compound [2]
1 | O=C[C@@H](O)[C@@H](O)[C@H](O)[C@H](O)CO [D-mannose] | 1 000 μM | 10 mM | 100 µM | 
2 | CC(=O)O[C@@]12CO[C@@H]1C[C@H](O)[C@@]1(C)C(=O)[C@H](O)C3=C(C)[C@@H](OC(=O)[C@H](O)[C@@H](NC(=O)OC(C)(C)C)c4ccccc4)C[C@@](O)([C@@H](OC(=O)c4ccccc4)[C@H]21)C3(C)C [Docetaxel] |  |  |  | consistent with known values of inherent toxicity
